This note sets out measurements from ChEMBL document CHEMBL1157712, “Hit to lead account of the discovery of bisbenzamide and related ureidobenzamide inhibitors of Rho kinase” (J Med Chem, 2010).

For orientation: IC50 means the midpoint of a concentration-inhibition curve.

Bounds are passed on as bounds.

Data set [1] deals with cGMP-dependent protein kinase 1 (Homo sapiens, UniProt Q13976). Nature of the data set: Inhibition of PRKG1.
Data set [2] deals with Rho-associated protein kinase 2 (Homo sapiens, UniProt O75116).
Chain of Rho-associated protein kinase 2 (O75116 whole entry, canonical isoform): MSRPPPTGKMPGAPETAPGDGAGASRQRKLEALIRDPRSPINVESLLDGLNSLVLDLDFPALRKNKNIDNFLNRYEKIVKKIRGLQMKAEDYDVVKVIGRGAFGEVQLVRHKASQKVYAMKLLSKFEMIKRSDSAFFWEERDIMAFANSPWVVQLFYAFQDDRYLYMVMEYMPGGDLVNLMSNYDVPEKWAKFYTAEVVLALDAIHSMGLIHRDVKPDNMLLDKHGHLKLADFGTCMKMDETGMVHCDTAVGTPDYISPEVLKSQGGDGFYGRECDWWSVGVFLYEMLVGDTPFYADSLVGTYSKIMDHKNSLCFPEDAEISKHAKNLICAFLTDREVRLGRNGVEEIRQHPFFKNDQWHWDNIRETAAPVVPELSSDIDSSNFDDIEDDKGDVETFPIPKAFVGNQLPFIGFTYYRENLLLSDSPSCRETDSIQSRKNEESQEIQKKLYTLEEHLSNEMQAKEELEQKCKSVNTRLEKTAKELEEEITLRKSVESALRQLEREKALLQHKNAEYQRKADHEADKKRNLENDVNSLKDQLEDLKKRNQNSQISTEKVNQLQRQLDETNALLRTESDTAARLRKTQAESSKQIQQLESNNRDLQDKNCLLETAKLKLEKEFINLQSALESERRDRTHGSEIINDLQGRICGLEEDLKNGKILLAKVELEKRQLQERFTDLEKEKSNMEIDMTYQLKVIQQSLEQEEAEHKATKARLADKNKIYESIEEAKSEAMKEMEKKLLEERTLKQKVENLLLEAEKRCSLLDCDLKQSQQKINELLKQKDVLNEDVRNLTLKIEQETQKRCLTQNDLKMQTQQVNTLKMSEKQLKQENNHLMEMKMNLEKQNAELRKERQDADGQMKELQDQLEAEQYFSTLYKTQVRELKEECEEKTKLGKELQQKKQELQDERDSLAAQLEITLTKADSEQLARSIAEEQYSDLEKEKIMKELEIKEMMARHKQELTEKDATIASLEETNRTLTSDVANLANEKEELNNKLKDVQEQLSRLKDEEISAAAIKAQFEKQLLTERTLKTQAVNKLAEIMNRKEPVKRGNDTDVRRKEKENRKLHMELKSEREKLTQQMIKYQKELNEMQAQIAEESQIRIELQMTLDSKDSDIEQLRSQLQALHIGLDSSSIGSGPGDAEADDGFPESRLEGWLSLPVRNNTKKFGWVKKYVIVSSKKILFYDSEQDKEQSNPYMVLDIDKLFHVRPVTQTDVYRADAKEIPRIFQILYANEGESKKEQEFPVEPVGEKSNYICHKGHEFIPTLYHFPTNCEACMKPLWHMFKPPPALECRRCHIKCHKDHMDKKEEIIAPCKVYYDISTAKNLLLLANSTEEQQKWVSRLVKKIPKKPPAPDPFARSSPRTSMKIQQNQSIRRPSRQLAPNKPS
Description: Inhibition of human ROCK2 by homogenous luciferase assay
Data set [3] has as its target Casein kinase I isoform alpha (Homo sapiens) (UniProt P48729). Nature of the data set: Inhibition of CK1 at 3 uM relative to control; values are per cent of control.
For data set [4], the target named is Serine/threonine-protein kinase Sgk1 (Homo sapiens) (UniProt O00141). Nature of the data set: Inhibition of SGK at 3 uM relative to control; values are per cent of control.
Chain of Serine/threonine-protein kinase Sgk1 (Homo sapiens) (O00141 whole entry): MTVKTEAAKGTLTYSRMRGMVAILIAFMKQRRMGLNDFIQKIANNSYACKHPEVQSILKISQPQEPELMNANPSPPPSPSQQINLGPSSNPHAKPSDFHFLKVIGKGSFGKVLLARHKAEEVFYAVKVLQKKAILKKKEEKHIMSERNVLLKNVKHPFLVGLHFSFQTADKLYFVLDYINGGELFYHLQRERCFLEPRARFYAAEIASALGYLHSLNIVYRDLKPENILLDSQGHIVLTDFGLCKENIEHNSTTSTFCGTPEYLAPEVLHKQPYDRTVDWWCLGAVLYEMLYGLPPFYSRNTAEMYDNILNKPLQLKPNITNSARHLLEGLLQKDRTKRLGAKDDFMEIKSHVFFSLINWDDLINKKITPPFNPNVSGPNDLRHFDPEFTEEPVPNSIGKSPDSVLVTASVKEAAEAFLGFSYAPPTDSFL
In data set [5] the target is Cyclin-dependent kinase 2 (Homo sapiens) (UniProt P24941). Description: Inhibition of CDK2 at 3 uM relative to control; values are per cent of control.
Data set [6] has as its target Serine/threonine-protein kinase Chk1 (Homo sapiens) (UniProt O14757). Nature of the data set: Inhibition of CHK1 at 3 uM relative to control; values are per cent of control.
The target in data set [7] is MAP kinase-interacting serine/threonine-protein kinase 1 (Homo sapiens) (UniProt Q9BUB5). Description: Inhibition of MNK1 at 3 uM relative to control; values are per cent of control.
Chain of MAP kinase-interacting serine/threonine-protein kinase 1 (Homo sapiens) (Q9BUB5 whole entry, looked up): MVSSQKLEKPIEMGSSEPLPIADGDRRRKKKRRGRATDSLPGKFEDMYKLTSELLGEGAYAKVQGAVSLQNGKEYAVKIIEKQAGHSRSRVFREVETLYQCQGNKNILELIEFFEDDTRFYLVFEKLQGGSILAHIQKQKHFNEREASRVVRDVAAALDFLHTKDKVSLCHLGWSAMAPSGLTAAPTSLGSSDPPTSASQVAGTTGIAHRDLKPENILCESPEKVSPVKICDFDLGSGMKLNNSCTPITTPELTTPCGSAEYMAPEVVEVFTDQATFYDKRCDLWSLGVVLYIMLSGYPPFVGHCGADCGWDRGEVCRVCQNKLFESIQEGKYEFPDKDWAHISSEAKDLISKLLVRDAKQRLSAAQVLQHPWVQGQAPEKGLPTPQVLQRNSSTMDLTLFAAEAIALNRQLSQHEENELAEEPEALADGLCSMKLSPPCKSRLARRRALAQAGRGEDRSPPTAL
The target of data set [8] is Serine/threonine-protein kinase 3 (Homo sapiens) (UniProt Q13188). Nature of the data set: Inhibition of MST2 at 3 uM relative to control; values are per cent of control.
Chain of Serine/threonine-protein kinase 3 (Homo sapiens) (Q13188 whole entry): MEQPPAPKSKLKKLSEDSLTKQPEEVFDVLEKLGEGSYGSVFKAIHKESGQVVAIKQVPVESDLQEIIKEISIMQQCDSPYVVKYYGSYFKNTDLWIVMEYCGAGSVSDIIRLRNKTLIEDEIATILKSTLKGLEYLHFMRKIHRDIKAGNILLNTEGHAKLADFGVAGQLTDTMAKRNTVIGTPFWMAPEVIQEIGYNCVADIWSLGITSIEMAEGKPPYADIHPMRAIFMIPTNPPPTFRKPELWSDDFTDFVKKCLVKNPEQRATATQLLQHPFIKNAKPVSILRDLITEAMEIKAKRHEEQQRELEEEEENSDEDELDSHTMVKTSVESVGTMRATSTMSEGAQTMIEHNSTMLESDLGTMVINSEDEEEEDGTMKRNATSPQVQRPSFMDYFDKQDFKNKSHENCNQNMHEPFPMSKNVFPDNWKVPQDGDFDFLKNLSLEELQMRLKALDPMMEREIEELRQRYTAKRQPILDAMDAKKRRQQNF
Data set [9] has as its target Serine/threonine-protein kinase pim-2 (Homo sapiens, UniProt Q9P1W9). Description: Inhibition of PIM2 at 3 uM relative to control; values are per cent of control.
Data set [10] addresses Serine/threonine-protein kinase D1 (Homo sapiens) (UniProt Q15139). Description: Inhibition of PKD1 at 3 uM relative to control; values are per cent of control.
Data set [11] has as its target Serine/threonine-protein kinase PLK1 (Homo sapiens, UniProt P53350). Description: Inhibition of PLK1 at 3 uM relative to control; values are per cent of control.
In data set [12] the target is Dual specificity tyrosine-phosphorylation-regulated kinase 1A (Homo sapiens) (UniProt Q13627). Nature of the data set: Inhibition of DYRK1A at 3 uM relative to control; values are per cent of control.
A short description of data set [13]: Inhibition of SAPK2a at 3 uM relative to control; values are per cent of control.
Data set [14] has as its target RAC-beta serine/threonine-protein kinase (Homo sapiens) (UniProt P31751). Description: Inhibition of PKBbeta at 3 uM relative to control; values are per cent of control.
In data set [15] the target is MAP kinase-activated protein kinase 3 (Homo sapiens) (UniProt Q16644). Description: Inhibition of MAPKAPK3 at 3 uM relative to control; values are per cent of control.
Data set [16] addresses Ribosomal protein S6 kinase alpha-3 (Homo sapiens) (UniProt P51812). Nature of the data set: Inhibition of MAPKAPK1b at 3 uM relative to control; values are per cent of control.
Data set [17] addresses Tyrosine-protein kinase Lyn (Homo sapiens, UniProt P07948). Nature of the data set: Inhibition of LYN.
For a further data set, the system named is Caco-2. Nature of the data set: Permeability from apical to basolateral side in human Caco-2 cells. The data set is classed as ADME, cell-based. The settings on record: caco-2, BLD = below limit of detection.
Data set [18] in a line: Permeability from basolateral to apical side in human Caco-2 cells. The data set is classed as ADME, cell-based. The settings on record: read-out: permeability. (In general: Caco-2 cells form a polarised layer with tight junctions and transporters.)
The species named for another data set is Rattus norvegicus. Nature of the data set: Induction of relaxation activity of phenylephrine-induced Sprague-Dawley rat aortic ring contraction. The data set is classed as functional. The settings on record: Aorta.
Data set [19] deals with MAP kinase-interacting serine/threonine-protein kinase 1 (Homo sapiens) (UniProt Q9BUB5). The settings on record: 3 to 6 uM.
Description: Inhibition of MNK1 at 3 to 6 uM relative to control
Data set [20] addresses Ribosomal protein S6 kinase alpha-5 (Homo sapiens) (UniProt O75582). The settings on record: 3 to 6 uM.
Description: Inhibition of MSK1 at 3 to 6 uM relative to control
Data set [21] addresses Serine/threonine-protein kinase 3 (Homo sapiens) (UniProt Q13188). Particulars: 3 to 6 uM; call rule not given here.
For data set [22], the target named is Serine/threonine-protein kinase Nek2 (Homo sapiens) (UniProt P51955). Particulars: 3 to 6 uM.
Description: Inhibition of NEK2a at 3 to 6 uM relative to control
The target of data set [23] is Serine/threonine-protein kinase Nek6 (Homo sapiens) (UniProt Q9HC98). The settings on record: 3 to 6 uM.
Description: Inhibition of NEK6 at 3 to 6 uM relative to control
Data set [24] concerns the target Mitogen-activated protein kinase kinase kinase 14 (Homo sapiens) (UniProt Q99558). Particulars: 3 to 6 uM.
Description: Inhibition of NIK at 3 to 6 uM relative to control
Data set [25] deals with Mitogen-activated protein kinase 14 (Homo sapiens) (UniProt Q16539). The settings on record: 3 to 6 uM.
Chain of Mitogen-activated protein kinase 14 (Homo sapiens) (Q16539 whole entry): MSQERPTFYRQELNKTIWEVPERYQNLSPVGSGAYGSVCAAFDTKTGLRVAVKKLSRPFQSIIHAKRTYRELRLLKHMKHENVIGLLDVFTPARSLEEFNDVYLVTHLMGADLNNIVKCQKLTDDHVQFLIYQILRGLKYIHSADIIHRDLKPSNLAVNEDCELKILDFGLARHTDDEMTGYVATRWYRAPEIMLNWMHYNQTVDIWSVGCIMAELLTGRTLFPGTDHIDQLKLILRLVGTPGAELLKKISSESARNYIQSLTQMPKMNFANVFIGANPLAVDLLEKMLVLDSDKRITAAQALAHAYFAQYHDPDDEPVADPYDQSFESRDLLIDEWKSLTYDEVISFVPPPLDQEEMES
Description: Inhibition of p38a at 3 to 6 uM relative to control
Data set [26] concerns the target Lymphokine-activated killer T-cell-originated protein kinase (Homo sapiens) (UniProt Q96KB5). The settings on record: 3 to 6 uM.
Description: Inhibition of PBK at 3 to 6 uM relative to control
The target in data set [27] is MAP kinase-activated protein kinase 5 (Homo sapiens) (UniProt Q8IW41). The settings on record: 3 to 6 uM.
Description: Inhibition of PRAK at 3 to 6 uM relative to control
The target in data set [28] is Ribosomal protein S6 kinase beta-1 (Homo sapiens) (UniProt P23443). The settings on record: 3 to 6 uM.
Chain of Ribosomal protein S6 kinase beta-1 (Homo sapiens) (P23443 whole entry, looked up): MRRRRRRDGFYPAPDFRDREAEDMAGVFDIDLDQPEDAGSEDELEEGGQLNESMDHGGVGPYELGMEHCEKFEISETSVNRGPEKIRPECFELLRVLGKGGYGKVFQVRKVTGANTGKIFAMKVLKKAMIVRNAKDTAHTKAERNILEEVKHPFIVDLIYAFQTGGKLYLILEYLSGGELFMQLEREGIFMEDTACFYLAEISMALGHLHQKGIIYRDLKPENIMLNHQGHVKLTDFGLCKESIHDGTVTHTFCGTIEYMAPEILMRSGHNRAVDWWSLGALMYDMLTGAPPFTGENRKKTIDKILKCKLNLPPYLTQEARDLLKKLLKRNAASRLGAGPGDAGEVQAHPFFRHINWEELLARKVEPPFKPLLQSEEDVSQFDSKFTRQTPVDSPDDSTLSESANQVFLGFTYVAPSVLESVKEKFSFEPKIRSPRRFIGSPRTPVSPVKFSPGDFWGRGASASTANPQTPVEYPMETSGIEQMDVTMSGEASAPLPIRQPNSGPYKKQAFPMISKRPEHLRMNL
Description: Inhibition of S6K1 at 3 to 6 uM relative to control
Data set [29] deals with Serine/threonine-protein kinase Sgk1 (Homo sapiens) (UniProt O00141). The settings on record: 3 to 6 uM.
Description: Inhibition of SGK at 3 to 6 uM relative to control
Data set [30] concerns the target Myosin light chain kinase, smooth muscle (Homo sapiens) (UniProt Q15746). Particulars: 3 to 6 uM.
Description: Inhibition of SMMLCK at 3 to 6 uM relative to control
Data set [31] deals with Receptor-interacting serine/threonine-protein kinase 4 (Homo sapiens) (UniProt P57078). The settings on record: 3 to 6 uM.
Description: Inhibition of ANKRD3 at 3 to 6 uM relative to control
The target of data set [32] is Aurora kinase B (Homo sapiens) (UniProt Q96GD4). Particulars: 3 to 6 uM.
Description: Inhibition of Aurora B at 3 to 6 uM relative to control
Data set [33] has as its target Epithelial discoidin domain-containing receptor 1 (Homo sapiens) (UniProt Q08345). The settings on record: 3 to 6 uM.
Description: Inhibition of DDR1 at 3 to 6 uM relative to control
The target in data set [34] is Myotonin-protein kinase (Homo sapiens) (UniProt Q09013). The settings on record: 3 to 6 uM.
Description: Inhibition of DMPK at 3 to 6 uM relative to control
Data set [35] has as its target Serine/threonine-protein kinase haspin (Homo sapiens) (UniProt Q8TF76). Particulars: 3 to 6 uM.
Description: Inhibition of GSG2 at 3 to 6 uM relative to control
Data set [36] addresses Mitogen-activated protein kinase 1 (Homo sapiens) (UniProt P28482). The settings on record: 3 to 6 uM.
Description: Inhibition of MAPK2 at 3 to 6 uM relative to control
Data set [37] concerns the target Voltage-gated inwardly rectifying potassium channel KCNH2 (Homo sapiens, UniProt Q12809). Description: Inhibition of human ERG potassium channel up to 70 uM.

Chain of cGMP-dependent protein kinase 1 (Q13976 whole entry): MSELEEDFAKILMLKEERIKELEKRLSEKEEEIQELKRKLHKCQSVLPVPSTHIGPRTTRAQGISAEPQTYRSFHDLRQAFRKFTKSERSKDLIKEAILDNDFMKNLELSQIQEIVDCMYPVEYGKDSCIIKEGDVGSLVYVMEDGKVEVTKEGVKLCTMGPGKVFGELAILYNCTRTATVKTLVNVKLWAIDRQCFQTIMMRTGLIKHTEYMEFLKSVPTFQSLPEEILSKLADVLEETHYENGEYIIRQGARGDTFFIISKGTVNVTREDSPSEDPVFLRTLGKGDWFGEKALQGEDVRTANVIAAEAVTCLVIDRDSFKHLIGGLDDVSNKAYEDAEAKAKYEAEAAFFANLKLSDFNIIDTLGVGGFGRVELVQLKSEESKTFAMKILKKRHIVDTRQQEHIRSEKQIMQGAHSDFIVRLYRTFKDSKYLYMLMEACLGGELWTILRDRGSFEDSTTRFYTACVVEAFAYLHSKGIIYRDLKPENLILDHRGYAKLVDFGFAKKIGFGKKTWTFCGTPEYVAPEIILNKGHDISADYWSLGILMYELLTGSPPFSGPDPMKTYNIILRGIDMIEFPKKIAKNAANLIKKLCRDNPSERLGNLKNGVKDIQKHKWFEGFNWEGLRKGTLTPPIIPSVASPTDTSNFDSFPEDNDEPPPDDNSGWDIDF
Chain of RAC-beta serine/threonine-protein kinase (Homo sapiens) (P31751 whole entry): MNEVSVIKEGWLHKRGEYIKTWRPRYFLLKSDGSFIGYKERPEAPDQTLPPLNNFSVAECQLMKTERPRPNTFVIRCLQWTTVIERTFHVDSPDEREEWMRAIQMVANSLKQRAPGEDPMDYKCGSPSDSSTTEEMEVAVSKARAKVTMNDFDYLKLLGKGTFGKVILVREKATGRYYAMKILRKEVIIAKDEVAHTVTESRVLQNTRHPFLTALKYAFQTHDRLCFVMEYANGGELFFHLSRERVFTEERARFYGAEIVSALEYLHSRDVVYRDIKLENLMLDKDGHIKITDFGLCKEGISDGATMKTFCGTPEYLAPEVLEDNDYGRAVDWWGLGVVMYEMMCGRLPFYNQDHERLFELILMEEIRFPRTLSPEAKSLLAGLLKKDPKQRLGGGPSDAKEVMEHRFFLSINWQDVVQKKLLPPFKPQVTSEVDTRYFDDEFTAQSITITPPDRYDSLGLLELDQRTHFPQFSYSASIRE

In the case of `NC(=O)c1ccc(NC(=O)NCc2cccc(C(=O)Nc3ccc4c(c3)CNCC4)c2)cc1`, the results for the IC50 in data set [1] and in data set [2] were 3 µM and 0.004 µM, respectively. Moreover, the residual activity in [3], in [4], in data set [5], in data set [6], in data set [7] and in data set [8] was above 50% in each case. Moreover, the residual activity in [9], in data set [10], in data set [11], in data set [12], in data set [13] and in [14] was above 50% throughout. In addition, the residual activity in [15] and in [16] was above 50% each time.
Consider `COc1ccc(C(=O)NCc2cccc(C(=O)Nc3ccc4c(c3)CNCC4)c2)cc1OC`, for which the 50% inhibitory concentration (IC50) in data set [17] was above 10 µM; in [1], 5.6 µM; in the data set listed under Rattus norvegicus, 6.4 µM; in data set [2], 0.033 µM. Also, in the data set with Caco-2, the permeability entry is on record as “BLD”. Moreover, the Papp B→A in data set [18] came out at 5.4 ×10⁻⁶ cm/s. In addition, the residual activity in [19], in data set [20], in [21], in data set [22], in data set [23] and in data set [24] was above 50% each time. The residual activity in data set [25], in data set [26], in data set [27], in data set [28], in data set [29] and in data set [30] was above 50% throughout. Besides, the residual activity in [31], in [32], in data set [33], in [34], in [35] and in data set [36] was above 50% throughout. In [37], the “inhibition (INH)” value is on record as “Not Active”.
